Experimental data taken from paper PMC5444695, “CM363, a novel naphthoquinone derivative which acts as multikinase modulator and overcomes imatinib resistance in chronic myelogenous leukemia” (Oncotarget, 2016).
Read-outs that look alike come from different tables or passages of the source.

Assays:
K562-R cells = experiment: MTT cell viability assay, IM-resistant K562-R cells; type: cell-based, human; conditions: 72 h, MTT (Fig 10D)
Experimental: All cell lines were purchased from the American Type Culture Collection (ATCC). The cell lines were growth at 37°C under 5% CO2 under humidified atmosphere. […] The cell lines L1210 (mouse lymphocytic leukemia cells), Raw (mouse macrophage), HeLa (human epithelial cervix cancer), U-2 OS (human osteosarcoma), MG63 (human osteosarcoma) and T47D (human breast cancer adenocarcinoma) were maintained in DMEM. HEK293 cells stably expressing the GH receptor (HEKGHR) were maintained in DMEM-F12 medium. The human breast cancer cell line SKBR3 was maintained in McCoy’s 5A medium. Cell culture medium was supplemented with 10% FBS, L-glutamine (2 mM) and PEST. In addition, the cell culture medium for T47D was supplemented with 1 mM NaPyr and 10 mM HEPES. Human peripheral blood mononuclear cells (PBMC) were isolated from heparin-anticoagulated blood of healthy volunteers by centrifugation with Ficoll-Paque Plus (Amersham Biosciences).
The mitochondrial metabolization of the tetrazolium salt 3-(4,5-methyltiazol-2yl-)-2,5diphenyl-tetrazolium bromide] (MTT) (Applichen, Germany) was used as indicator of cell viability. Optical density was measured at 595 nm with the iMark Microplate Reader (BioRad, CA, USA).

HeLa cells = experiment: MTT cell viability assay, HeLa cells; type: cell-based; conditions: Homo sapiens, 48 h, read-out: IC50 (μM) Mean ± SD
Experimental: (§1) All cell lines were purchased from the American Type Culture Collection (ATCC). The cell lines were growth at 37°C under 5% CO2 under humidified atmosphere. The cell lines K562 (derived from patients during the blast crisis phase of CML and IM sensitive), K562-R (IM resistance human CML), KmycBT15I (KBTI; IM resistant human CML, expressing the Bcr-Abl […] mutant), HEL (human erythroleukemia), HL60 (human acute myeloid leukemia), MOLM-13 (human acute myeloid leukemia), MV4.11 (human acute monocytic leukemia), HCT-15 (human colorectal adenocarcinoma), PC3 (human prostate cancer), MCF7 (human breast cancer), NCTC3749 (mouse lymphoma) as well as the MRC.5 cells (non-malignant human lung fibroblasts) were maintained in RPMI-1640 medium. The cell lines L1210 (mouse lymphocytic leukemia cells), Raw (mouse macrophage), HeLa (human epithelial cervix cancer), U-2 OS (human osteosarcoma), MG63 (human osteosarcoma) and T47D (human breast cancer adenocarcinoma) were maintained in DMEM. HEK293 cells stably expressing the GH receptor (HEKGHR) were maintained in DMEM-F12 medium. […]
(§2) Cells were seeded in 96-well plates (BD Falcon, France) at exponential growth density (5000–20000 cells/well) and treated with vehicle (0.05% DMSO) or compound (0.01 to 10 μM) for 48–72 h. […] Optical density was measured at 595 nm with the iMark Microplate Reader (BioRad, CA, USA).

pTyr694-Stat5 (pYStat5) = experiment: Immunoblotting of constitutive pYStat5 in K562 cells; type: cell-based; conditions: Homo sapiens; K562, 3 μM CM363, 3 h
Experimental: Then, cells were rinsed with cold PBS-vanadate (1 mM) followed by preparation of whole lysis extract with RIPA (Pierce, Illinois, USA). Equal amounts of each sample were separated by SDS-PAGE and transfered onto nitrocellulose membranes. After being blocked with 1% BSA-1% Blotto (anti-phospho-antibodies) (Santa Cruz Biotechnology, CA, USA) or 5% blotto (anti-total-antibodies) (Santa Cruz Biotechnology, CA, USA) (both diluted in Tris buffered saline with 0.05% Tween 20), membranes were immunoblotted overnight at 4°C with dilution (1:1000) in the same buffer of blocking of primary phosphoprotein or total protein antibodies. […] To control for differences in loading and transfer efficiency across membranes, membranes were incubated with a monoclonal mouse anti-beta actin antibody (Santa Cruz Biotechnology, CA, USA). The phosphoprotein array analysis of K562 cells was carried out by using the Profiler Human Phospho-Kinase Array Kit ARY003B (R&D Systems, Minneapolis, MN, USA) according to the manufacturer`s instructions.

U-2 OS cells = experiment: MTT cell viability assay, U-2 OS cells; type: cell-based; conditions: Homo sapiens, U2OS, 48 h, read-out: IC50 (μM) Mean ± SD
Experimental: as §1, §2

HEL cells = experiment: MTT cell viability assay, HEL cells; type: cell-based; conditions: Homo sapiens, 48 h, read-out: IC50 (μM) Mean ± SD
Experimental: as §1, §2

HL60 cells = experiment: MTT cell viability assay, HL60 cells; type: cell-based; conditions: Homo sapiens, HL-60, HL60, 48 h, read-out: IC50 (μM) Mean ± SD
Experimental: as §1, §2

pYStat5 = experiment: GM-CSF-induced pYStat5 in primary mouse macrophages; type: cell-based; conditions: 3 μM CM363 for 0.5 h, data not shown
MOLM.13 cells = experiment: MTT cell viability assay, MOLM.13 cells; type: cell-based; conditions: Homo sapiens, MOLM.13, 48 h, read-out: IC50 (μM) Mean ± SD
Experimental: as §1, §2

MRC.5 cells = experiment: MTT cell viability assay, MRC.5 cells; type: cell-based; conditions: Homo sapiens, MRC5, MRC.5 non-malignant lung fibroblasts, 48 h, read-out: IC50 (μM) Mean ± SD
Experimental: as §1, §2

MG63 cells = experiment: MTT cell viability assay, MG63 cells; type: cell-based; conditions: Homo sapiens, MG-63, MG63, 48 h, read-out: IC50 (μM) Mean ± SD
Experimental: as §1, §2

Raw cells = experiment: MTT cell viability assay, Raw cells; type: cell-based; conditions: Mus musculus, 48 h, read-out: IC50 (μM) Mean ± SD
Experimental: as §1, §2

K562 cells = experiment: MTT cell viability assay, K562 cells; type: cell-based, human; conditions: for IC50: Homo sapiens
Experimental: All cell lines were purchased from the American Type Culture Collection (ATCC). The cell lines were growth at 37°C under 5% CO2 under humidified atmosphere. The cell lines K562 (derived from patients during the blast crisis phase of CML and IM sensitive), K562-R (IM resistance human CML), KmycBT15I (KBTI; IM resistant human CML, expressing the Bcr-Abl […] mutant), HEL (human erythroleukemia), HL60 (human acute myeloid leukemia), MOLM-13 (human acute myeloid leukemia), MV4.11 (human acute monocytic leukemia), HCT-15 (human colorectal adenocarcinoma), PC3 (human prostate cancer), MCF7 (human breast cancer), NCTC3749 (mouse lymphoma) as well as the MRC.5 cells (non-malignant human lung fibroblasts) were maintained in RPMI-1640 medium. The cell lines L1210 (mouse lymphocytic leukemia cells), Raw (mouse macrophage), HeLa (human epithelial cervix cancer), U-2 OS (human osteosarcoma), MG63 (human osteosarcoma) and T47D (human breast cancer adenocarcinoma) were maintained in DMEM. HEK293 cells stably expressing the GH receptor (HEKGHR) were maintained in DMEM-F12 medium. The human breast cancer cell line SKBR3 was maintained in McCoy’s 5A medium. Cell culture medium was supplemented with 10% FBS, L-glutamine (2 mM) and PEST. In addition, the cell culture medium for T47D was supplemented with 1 mM NaPyr and 10 mM HEPES. Human peripheral blood mononuclear cells (PBMC) were isolated from heparin-anticoagulated blood of healthy volunteers by centrifugation with Ficoll-Paque Plus (Amersham Biosciences).
Cells were seeded in 96-well plates (BD Falcon, France) at exponential growth density (5000–20000 cells/well) and treated with vehicle (0.05% DMSO) or compound (0.01 to 10 μM) for 48–72 h. The mitochondrial metabolization of the tetrazolium salt 3-(4,5-methyltiazol-2yl-)-2,5diphenyl-tetrazolium bromide] (MTT) (Applichen, Germany) was used as indicator of cell viability. Optical density was measured at 595 nm with the iMark Microplate Reader (BioRad, CA, USA).

L1210 cells = experiment: MTT cell viability assay, L1210 cells; type: cell-based; conditions: Mus musculus, L1210, 48 h, read-out: IC50 (μM) Mean ± SD
Experimental: as §1, §2

PMBC = experiment: MTT cell viability assay, PMBC; type: cell-based; conditions: Homo sapiens, 48 h, read-out: IC50 (μM) Mean ± SD
Experimental: as §1, §2

HCT-15 cells = experiment: MTT cell viability assay, HCT-15 cells; type: cell-based; conditions: Homo sapiens, HCT-15, 48 h, read-out: IC50 (μM) Mean ± SD
Experimental: as §1, §2

## N#Cc1ccc(C2C3=C(CCCC3=O)OC3=C2C(=O)c2ccccc2C3=O)cc1 (stereo not drawn) [CM363, 4-(1,6,11-trioxo-2,3,4,6,11,12-hexahydro-1H-benzo[b]xanthen-12-yl)benzonitrile]
K562-R cells
  lowest concentration at which inhibition was detected: 0.3 µM
K562-R cells; Homo sapiens, K-562R
  IC50: ~600 nM
HeLa cells
  IC50: 4.8 ± 0.4 µM
pTyr694-Stat5 (pYStat5)
  inhibition at 3 µM: 20%
U-2 OS cells
  IC50: 4.3 ± 1.2 µM
HEL cells
  IC50: 1.3 ± 0.3 µM
HL60 cells
  IC50: 1.3 ± 0.6 µM
pYStat5
  inhibition of GM-CSF-induced (10 min) pYStat5: complete inhibition
MOLM.13 cells
  IC50: 0.7 ± 1.1 µM
MRC.5 cells
  IC50: 3.5 µM
MG63 cells
  IC50: 1.6 ± 0.9 µM
Raw cells
  IC50: 0.1 ± 0.2 µM
K562 cells; IM sensitive K562, 72 h, MTT (Fig 10D), read-out: IC50, cell viability
  IC50: ~0.6 µM
K562 cells; K562, 48 h, MTT, read-out: IC50 (μM) Mean ± SD
  IC50: 0.7 ± 0.5 µM
K562 cells; IM sensitive K562, 72 h, MTT (Fig 10D)
  lowest concentration at which inhibition was detected: 0.3 µM
L1210 cells
  IC50: 3.4 ± 0.4 µM
PMBC
  IC50: > 5 µM
HCT-15 cells
  IC50: 3.3 µM
